In ChEMBL document CHEMBL3608294, “Epoxylathyrol Derivatives: Modulation of ABCB1-Mediated Multidrug Resistance in Human Colon Adenocarcinoma and Mouse T-Lymphoma Cells” (J Nat Prod, 2015):

Legend:
[1] = target: T1, ATP-dependent translocase ABCB1 (Homo sapiens, UniProt P08183); assay: Inhibition of human ABCB1 expressed in mouse L5178Y cells assessed as fluorescence activity ratio at 20 uM incubated for 10 mins by flow cytometry based rhodamine-123 accumulation assay (reference value: 0.78); format: cell-based
T1 sequence (P08183 whole entry): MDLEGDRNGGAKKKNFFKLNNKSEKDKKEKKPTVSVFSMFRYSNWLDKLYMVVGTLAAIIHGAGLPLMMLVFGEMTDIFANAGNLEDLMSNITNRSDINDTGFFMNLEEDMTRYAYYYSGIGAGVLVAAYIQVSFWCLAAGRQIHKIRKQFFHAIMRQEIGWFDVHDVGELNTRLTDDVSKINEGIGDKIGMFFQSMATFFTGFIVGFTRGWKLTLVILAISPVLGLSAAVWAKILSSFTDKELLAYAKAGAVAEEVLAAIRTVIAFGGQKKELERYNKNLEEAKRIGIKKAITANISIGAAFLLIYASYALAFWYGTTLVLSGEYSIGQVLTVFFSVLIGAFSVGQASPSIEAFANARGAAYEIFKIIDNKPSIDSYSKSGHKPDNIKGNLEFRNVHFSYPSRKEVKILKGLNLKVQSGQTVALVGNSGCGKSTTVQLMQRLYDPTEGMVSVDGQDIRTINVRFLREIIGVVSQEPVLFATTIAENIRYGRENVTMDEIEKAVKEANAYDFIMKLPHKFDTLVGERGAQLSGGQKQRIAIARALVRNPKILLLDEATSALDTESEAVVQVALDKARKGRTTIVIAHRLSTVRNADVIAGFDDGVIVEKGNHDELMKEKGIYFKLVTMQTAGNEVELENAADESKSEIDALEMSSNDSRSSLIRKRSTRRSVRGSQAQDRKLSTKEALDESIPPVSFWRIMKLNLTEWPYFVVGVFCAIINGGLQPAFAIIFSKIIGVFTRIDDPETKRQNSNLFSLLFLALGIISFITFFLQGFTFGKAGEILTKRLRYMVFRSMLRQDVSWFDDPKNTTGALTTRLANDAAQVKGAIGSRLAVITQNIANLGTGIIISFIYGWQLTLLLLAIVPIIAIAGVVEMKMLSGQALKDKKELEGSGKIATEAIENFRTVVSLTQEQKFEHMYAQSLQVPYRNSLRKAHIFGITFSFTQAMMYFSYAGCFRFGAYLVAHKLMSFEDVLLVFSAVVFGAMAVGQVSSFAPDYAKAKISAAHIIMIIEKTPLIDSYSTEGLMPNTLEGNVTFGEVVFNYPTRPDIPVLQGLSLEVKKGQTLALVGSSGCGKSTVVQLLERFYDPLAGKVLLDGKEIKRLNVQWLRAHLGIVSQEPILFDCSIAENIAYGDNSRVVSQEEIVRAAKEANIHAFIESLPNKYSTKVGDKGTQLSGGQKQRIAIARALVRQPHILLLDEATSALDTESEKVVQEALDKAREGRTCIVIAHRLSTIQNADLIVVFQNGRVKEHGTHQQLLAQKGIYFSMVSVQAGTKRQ

[2] = target: T1, ATP-dependent translocase ABCB1; assay: Inhibition of ABCB1 in multidrug resistant human COLO320 cells assessed as fluorescence activity ratio at 0.2 uM incubated for 10 mins by flow cytometry based rhodamine-123 accumulation assay (reference value: 0.62)
[3] = target: T1, ATP-dependent translocase ABCB1; assay: Inhibition of human ABCB1 expressed in mouse L5178Y cells assessed as fluorescence activity ratio at 0.2 uM incubated for 10 mins by flow cytometry based rhodamine-123 accumulation assay (reference value: 0.78); format: cell-based
[4] = Selectivity index, ratio of cytotoxic IC50 for chemosensitive human COLO205 cells to cytotoxic IC50 for multidrug resistant human COLO320 cells; format: functional, COLO 205
[5] = Antiproliferative activity against multidrug resistant human COLO320 cells incubated for 72 hrs by MTT assay; format: functional; conditions: COLO 320, 72 h
[6] = test system: L5178Y; assay: Antiproliferative activity against human ABCB1 expressing mouse L5178Y cells incubated for 72 hrs by MTT assay; format: functional, cell-based
[7] = target: T1, ATP-dependent translocase ABCB1; assay: Inhibition of human ABCB1 expressed in mouse L5178Y cells assessed as potentiation of 2 mg/ml doxorubicin-induced cytotoxicty at 9:1 compound to doxorubicin ratio incubated for 48 hrs by MTT assay; format: cell-based
[8] = test system: L5178Y; assay: Cytotoxicity against chemosensitive wild type parental mouse L5178Y cells incubated for 24 hrs by MTT assay; format: functional, cell-based
[9] = target: T1, ATP-dependent translocase ABCB1; assay: Inhibition of human ABCB1 expressed in mouse L5178Y cells assessed as fluorescence activity ratio at 2 uM incubated for 10 mins by flow cytometry based rhodamine-123 accumulation assay (reference value: 0.78); format: cell-based
[10] = target: T1, ATP-dependent translocase ABCB1; assay: Inhibition of ABCB1 in multidrug resistant human COLO320 cells assessed as fluorescence activity ratio at 2 uM incubated for 10 mins by flow cytometry based rhodamine-123 accumulation assay (reference value: 0.62)
[11] = target: T1, ATP-dependent translocase ABCB1; assay: Inhibition of ABCB1 in multidrug resistant human COLO320 cells assessed as fluorescence activity ratio at 20 uM incubated for 10 mins by flow cytometry based rhodamine-123 accumulation assay (reference value: 0.62)
[12] = test system: L5178Y; assay: Selectivity index, ratio of cytotoxic IC50 for wild type parental mouse L5178Y cells to cytotoxic IC50 for human ABCB1 expressing mouse L5178Y cells; format: functional
[13] = Antiproliferative activity against chemosensitive human COLO205 cells incubated for 72 hrs by MTT assay; format: functional, cell-based; conditions: COLO 205, 72 h
[14] = test system: L5178Y; assay: Antiproliferative activity against chemosensitive wild type parental mouse L5178Y cells incubated for 72 hrs by MTT assay; format: functional, cell-based
[15] = test system: L5178Y; assay: Selectivity index, ratio of antiproliferative IC50 for wild type parental mouse L5178Y cells to antiproliferative IC50 for human ABCB1 expressing mouse L5178Y cells; format: functional
[16] = Cytotoxicity against multidrug resistant human COLO320 cells incubated for 24 hrs by MTT assay; format: functional, cell-based; conditions: COLO 320, 24 h
[17] = test system: COLO 205; assay: Cytotoxicity against chemosensitive human COLO205 cells incubated for 24 hrs by MTT assay; format: functional, cell-based; conditions: COLO 205, 24 h
[18] = Selectivity index, ratio of antiproliferative IC50 for chemosensitive human COLO205 cells to antiproliferative IC50 for multidrug resistant human COLO320 cells; format: functional, COLO 205
[19] = test system: L5178Y; assay: Cytotoxicity against human ABCB1 expressing mouse L5178Y cells incubated for 24 hrs by MTT assay; format: functional, cell-based
[20] = target: T1, ATP-dependent translocase ABCB1; assay: Inhibition of human ABCB1 expressed in mouse L5178Y cells assessed as potentiation of 2 mg/ml doxorubicin-induced cytotoxicty at 7:1 compound to doxorubicin ratio incubated for 48 hrs by MTT assay; format: cell-based
[21] = target: T1, ATP-dependent translocase ABCB1; assay: Inhibition of human ABCB1 expressed in mouse L5178Y cells assessed as potentiation of 2 mg/ml doxorubicin-induced cytotoxicty by measuring combination index at 4:1 compound to doxorubicin ratio incubated for 48 hrs by MTT assay; format: cell-based
[22] = target: T1, ATP-dependent translocase ABCB1; assay: Inhibition of human ABCB1 expressed in mouse L5178Y cells assessed as potentiation of 2 mg/ml doxorubicin-induced cytotoxicty at 6:1 compound to doxorubicin ratio incubated for 48 hrs by MTT assay; format: cell-based
[23] = target: T1, ATP-dependent translocase ABCB1; assay: Activation of human ABCB1 expressed in Sf9 cell membrane vesicles assessed as inorganic phosphate release at 0.8 uM to 100 uM using MgATP by colorimetric ATPase assay
[24] = target: T1, ATP-dependent translocase ABCB1; assay: Non-competitive inhibition of human ABCB1 expressed in Sf9 cell membrane vesicles assessed as reduction in verapamil transport at >25 uM using MgATP by colorimetric ATPase assay
[25] = target: T1, ATP-dependent translocase ABCB1; assay: Non-competitive inhibition of human ABCB1 expressed in Sf9 cell membrane vesicles assessed as reduction in vanadate-sensitive ATPase activity at >25 uM using MgATP by colorimetric ATPase assay
[26] = target: T1, ATP-dependent translocase ABCB1; assay: Inhibition of human ABCB1 expressed in mouse L5178Y cells assessed as potentiation of 2 mg/ml doxorubicin-induced cytotoxicty by measuring combination index at 5:1 compound to doxorubicin ratio incubated for 48 hrs by MTT assay; format: cell-based
[27] = target: T1, ATP-dependent translocase ABCB1; assay: Inhibition of human ABCB1 expressed in Sf9 cell membrane vesicles assessed as reduction in verapamil transport at 0.8 uM to 100 uM using MgATP by colorimetric ATPase assay relative to control
[28] = target: T1, ATP-dependent translocase ABCB1; assay: Inhibition of human ABCB1 expressed in Sf9 cell membrane vesicles assessed as reduction in verapamil transport at 0.8 uM to 100 uM using MgATP by colorimetric ATPase assay

Ratio [1] | Ratio [2] | Ratio [3] | Ratio [9] | Ratio [10] | Ratio [11] | Activity [23] | Structure (SMILES) | Ratio IC50 [4] | IC50 [5] | IC50 [6] | IC50 [8] | Ratio IC50 [12] | IC50 [13] | IC50 [14] | Ratio IC50 [15] | IC50 [16] | IC50 [17] | Ratio IC50 [18] | IC50 [19] | CI [26] | other results
55.43 | 1.25 | 2.47 | 33.36 | 4.44 | 12.35 | – | COc1ccccc1C(=O)OC[C@]1(C)CC[C@H]2[C@@H](/C=C(\C)C(=O)[C@@]3(O)C[C@H](C)[C@H](OC(=O)c4ccccc4OC)[C@@H]3[C@H]1O)C2(C)C | 0.99 | 17.8 µM | 31.3 µM | 29.9 µM | 0.77 | 15.5 µM | 24.4 µM | 0.78 | 25.1 µM | 24.6 µM | 0.87 | 38.9 µM | – | CI [7]: 0.051
1.61 | – | – | 0.67 | 1.03 | 1.55 | – | C/C1=C\[C@@H]2[C@H](CC[C@]3(CO3)[C@H](OC(=O)N(C)C)[C@H]3[C@@H](O)[C@@H](C)C[C@]3(O)C1=O)C2(C)C | <0.41 | 69 µM | > 100 µM | > 100 µM | >100 | 69 µM | > 100 µM | – | > 100 µM | 41 µM | 1 | > 100 µM | – | CI [20]: 0.861
66.52 | 2.54 | 13.67 | 58.84 | 5.83 | 5.06 | – | C/C1=C\[C@@H]2[C@H](CC[C@]3(CO3)[C@H](OC(=O)c3ccc4ccccc4c3)[C@H]3[C@@H](OC(=O)c4ccc5ccccc5c4)[C@@H](C)C[C@]3(O)C1=O)C2(C)C | – | > 100 µM | > 100 µM | > 100 µM | – | > 100 µM | > 100 µM | – | > 100 µM | > 100 µM | – | > 100 µM | – | CI [21]: 0.233
33.19 | – | – | 1.45 | 1.37 | 4.29 | – | C/C1=C\[C@@H]2[C@H](CC[C@@](C)(O)[C@H](O)[C@H]3[C@@H](OC(=O)c4ccccc4)[C@@H](C)C[C@]3(O)[C@H]1O)C2(C)C | >1.9 | 37.1 µM | > 100 µM | > 100 µM | – | 30.4 µM | > 100 µM | – | 52.7 µM | > 100 µM | 0.84 | > 100 µM | – | CI [22]: 0.23
68.74 | – | – | 31.06 | 8.44 | 12.16 | Active | C/C1=C\[C@@H]2[C@H](CC[C@]3(CO3)[C@H](OC(=O)c3cccs3)[C@H]3[C@@H](OC(=O)c4cccs4)[C@@H](C)C[C@]3(O)C1=O)C2(C)C | >3.99 | > 100 µM | 32.4 µM | 32.8 µM | 1.16 | 18.8 µM | 26.2 µM | 0.81 | 25.1 µM | > 100 µM | <0.19 | 28.3 µM | 0.196 | inhibition (INH) [24]: Active; inhibition (INH) [25]: Active
63.13 | 3.13 | 10.45 | 60.62 | 9.1 | 15.4 | Active | COc1cccc(C(=O)O[C@@H]2[C@@H]3[C@@H](OC(=O)c4cccc(OC)c4)[C@]4(CC[C@H]5[C@@H](/C=C(\C)C(=O)[C@@]3(O)C[C@@H]2C)C5(C)C)CO4)c1 | – | > 100 µM | 52.8 µM | 42.3 µM | <0.42 | > 100 µM | 24.5 µM | 0.46 | > 100 µM | > 100 µM | – | > 100 µM | 0.097 | –
2.07 | – | – | 1.16 | 1.1 | 2.25 | – | CO[C@H]1[C@@H]2[C@H](CC[C@]3(COC(C)=O)O[C@@H]3[C@H]3[C@@H](OC(C)=O)[C@@H](C)C[C@]3(O)C(=O)[C@@H]1C)C2(C)C | – | 65.8 µM | > 100 µM | > 100 µM | – | > 100 µM | > 100 µM | – | > 100 µM | > 100 µM | >1.98 | > 100 µM | – | CI [22]: 0.214
56.81 | 1.02 | 1.38 | 8.03 | 3.07 | 12.31 | – | C/C1=C\[C@@H]2[C@H](CC[C@]3(CO3)[C@H](OC(=O)c3ccc(N(C)C)cc3)[C@H]3[C@@H](OC(=O)c4ccc(N(C)C)cc4)[C@@H](C)C[C@]3(O)C1=O)C2(C)C | 0.62 | 21.3 µM | 45.7 µM | 33.9 µM | 0.7 | 17.2 µM | 28.8 µM | 0.63 | 36.2 µM | 22.5 µM | 0.8 | 48.4 µM | 0.172 | –
83.29 | 3 | 3.55 | 86.39 | 5.59 | 6.86 | – | C/C1=C\[C@@H]2[C@H](CC[C@]3(CO3)[C@H](OC(=O)c3cccc(C)c3)[C@H]3[C@@H](OC(=O)c4cccc(C)c4)[C@@H](C)C[C@]3(O)C1=O)C2(C)C | >2.09 | 15.7 µM | 29 µM | 26.4 µM | <0.53 | 15.4 µM | 41.8 µM | 1.44 | 23.9 µM | > 50 µM | 0.98 | > 50 µM | 0.066 | –
71.78 | 6.34 | 11.85 | 67.06 | 9.85 | 13.97 | Active | CO[C@H]1[C@@H]2[C@H](CC[C@]3(COC(=O)c4ccccc4)O[C@@H]3[C@H]3[C@@H](OC(=O)c4ccccc4)[C@@H](C)C[C@]3(O)C(=O)[C@@H]1C)C2(C)C | – | 6.9 µM | 27.4 µM | 26.1 µM | 0.8 | 5.2 µM | 27 µM | 0.99 | – | – | 0.76 | 32.6 µM | 0.057 | inhibition (INH) [27]: 50%; inhibition (INH) [28]: Active
